The source of these data is patent publication US20250221966A1, “RXFP1 AGONISTS” (BRISTOL-MYERS SQUIBB COMPANY, priority 2021, published 2025).

The target in this experiment is T1, human RXFP1 (Homo sapiens, UniProt Q9HBX9).
T1 construct: expressed in transfected cells
T1 sequence (Q9HBX9 1-757): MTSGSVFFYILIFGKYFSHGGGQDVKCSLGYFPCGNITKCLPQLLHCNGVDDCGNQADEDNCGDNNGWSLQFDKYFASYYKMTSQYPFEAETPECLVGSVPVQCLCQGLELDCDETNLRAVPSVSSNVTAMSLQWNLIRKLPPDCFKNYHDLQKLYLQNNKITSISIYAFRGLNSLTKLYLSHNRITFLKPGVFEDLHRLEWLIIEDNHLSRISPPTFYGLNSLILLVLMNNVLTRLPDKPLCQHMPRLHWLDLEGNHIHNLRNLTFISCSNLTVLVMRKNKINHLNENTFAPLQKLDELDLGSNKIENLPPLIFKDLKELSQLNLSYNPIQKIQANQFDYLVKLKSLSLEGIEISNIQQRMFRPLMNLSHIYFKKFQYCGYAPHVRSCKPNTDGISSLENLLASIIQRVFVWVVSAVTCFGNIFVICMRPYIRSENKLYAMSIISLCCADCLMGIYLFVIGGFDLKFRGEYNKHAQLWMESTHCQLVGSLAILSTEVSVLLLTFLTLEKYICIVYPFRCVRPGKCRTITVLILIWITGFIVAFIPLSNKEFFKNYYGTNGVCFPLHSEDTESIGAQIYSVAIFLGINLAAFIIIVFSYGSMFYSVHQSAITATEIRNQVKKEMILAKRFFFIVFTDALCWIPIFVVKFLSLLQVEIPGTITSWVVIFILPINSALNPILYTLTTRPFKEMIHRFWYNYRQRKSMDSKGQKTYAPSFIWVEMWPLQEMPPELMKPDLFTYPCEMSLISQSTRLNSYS
The experiment in a line: RXFP1 cAMP assay (hRXFP1 HEK293 cAMP assay, HTRF). The settings on record: HEK293 cells stably expressing human RXFP1, 30 min at room temperature, read-out: cAMP hRXFP1 HEK293 Assay EC50. The format is cell-based. The gist of the method: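 hRXFP1-HEK293 stable line; HBSS + Ca/Mg, 20 mM HEPES, 0.05% BSA, 0.5 mM IBMX; cpd 0.010 nM–50 μM, 2% DMSO; 30 min RT; lysis, HTRF cAMP detection; 4-PL fit.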
The term EC50 denotes the concentration needed to bring the measured effect to its halfway point. Take `CN(C)c1c(Cl)cc(C2=NOC3COCC23)cc1C(=O)N[C@H]1[C@@H](C(=O)Nc2ccc(F)c(C(F)(F)F)c2)[C@H]2CC[C@@H]1/C2=C\C1CC1` (single isomer, unassigned) [compound 474]: the EC50 is 5 nM.

On to `COc1ccc(C2=NOC3COCC23)cc1C(=O)N[C@H]1[C@@H](C(=O)NCC2(C)CC2)[C@H]2CC[C@@H]1/C2=C\C1CC1` (stereo partly shown) [compound 522], for which the EC50 was determined as 21.1 nM.

Regarding `CNC(=O)OC(C(=O)NC)c1ccc(F)c(-c2ccc(OC)c(C(=O)N[C@@H]3C4CCC(/C4=C/C4CC4)[C@@H]3C(=O)Nc3ccc(F)c(C(F)(F)F)c3)c2)c1` (stereo partly shown) [compound 235], the half-maximal effective concentration (EC50) is 1 nM.

`CNC(=O)c1ccc(F)c(-c2ccc(OC)c(C(=O)N[C@H]3[C@@H](C(=O)Nc4ccc(F)c(C(F)(F)F)c4)[C@H]4CC[C@@H]3C4=C(C)C)c2)c1` [compound 151]: the EC50 worked out at 240 nM.

Turning to `COc1ccc(C2=NO[C@H]3COC[C@@H]23)cc1C(=O)N[C@H]1[C@@H](C(=O)Nc2ccc(F)c(C(F)(F)F)c2)[C@H]2CC[C@@H]1/C2=C\CC1CCC1` [compound 829], the EC50 was 3.4 nM.

With `COc1c(F)cc(C2=NOC3CC(CO)CC23)cc1C(=O)N[C@H]1[C@@H](C(=O)N[C@H](C)C2(C(F)(F)F)CC2)[C@H]2CC[C@@H]1/C2=C\C1CC1` (stereo partly shown) [compound 869], the concentration for a half-maximal effect (EC50) is 1.4 nM.

Consider `COc1cc(F)c(F)cc1C(=O)N[C@@H]1C2CCC(/C2=C/c2cc(C)cc(C)c2)[C@@H]1C(=O)Nc1ccc(F)c(C(F)(F)F)c1` (stereo partly shown) [compound 60], for which the EC50 is 920 nM.

Take `CNC(=O)c1ccc(F)c(-c2ccc(OC)c(C(=O)N[C@@H]3C4CCC(/C4=C/c4cnoc4)[C@@H]3C(=O)Nc3ccc(F)c(C(F)(F)F)c3)c2)c1` (stereo partly shown) [compound 165]: the EC50 amounted to 40 nM.

`COc1ccc(-c2cnc3c(cnn3CC(=O)O)c2)cc1C(=O)N[C@@H]1C2CCC(/C2=C/C(F)(F)F)[C@@H]1C(=O)Nc1ccc(F)c(C(F)(F)F)c1` (stereo partly shown) [compound 317]: the EC50 was 31 nM.

For `COc1ccc(-c2cc(C(CO)NC(=O)C3CCOCC3)ccc2F)cc1C(=O)N[C@@H]1C2CCC(/C2=C/C2CC2)[C@@H]1C(=O)Nc1ccc(F)c(C(F)(F)F)c1` (stereo partly shown) [compound 257], the EC50 was 16 nM.

Regarding `COc1ccc(C2=NOC(C3(O)CC3)C2)cc1C(=O)N[C@H]1[C@@H](C(=O)NCC(C)(C)C)[C@H]2CC[C@@H]1/C2=C\C1CC1` (stereo partly shown) [compound 618], the EC50 was determined as 155 nM.

As for `COc1ccc(C2=NO[C@H]3CC(CO)C[C@@H]23)cc1C(=O)N[C@H]1[C@@H](C(=O)Nc2ccc(F)c(C(F)(F)F)c2)[C@H]2CC[C@@H]1/C2=C\CCC1CC1` (stereo partly shown) [compound 824], the half-maximal effective concentration (EC50) is 2.9 nM.

In the case of `COc1cc(F)c(F)cc1C(=O)N[C@@H]1C2CCC(/C2=C/c2cccs2)[C@@H]1C(=O)Nc1ccc(F)c(C(F)(F)F)c1` (stereo partly shown) [compound 124], the EC50 is 210 nM.

Take `COc1ccc(-c2cc(C(COC(=O)NC3CCC3)C(F)(F)F)ccc2F)cc1C(=O)N[C@H]1[C@@H](C(=O)Nc2ccc(F)c(C(F)(F)F)c2)[C@H]2CC[C@@H]1/C2=C\C1CC1` (stereo partly shown) [compound 878]: the concentration for a half-maximal effect (EC50) came out at 5.1 nM.

As for `COc1ccc(N2CCC(NC(=O)C3CCOCC3)C2)cc1C(=O)N[C@@H]1C2CCC(/C2=C/C(F)(F)F)[C@@H]1C(=O)Nc1ccc(F)c(C(F)(F)F)c1` (single isomer, unassigned) [compound 337], the EC50 is 2080 nM.

Consider `COc1cc(F)c(F)cc1C(=O)N[C@@H]1C2CCC(/C2=C/c2cccc(Cc3ccccc3)c2)[C@@H]1C(=O)Nc1ccc(F)c(C(F)(F)F)c1` (stereo partly shown) [compound 49], for which the EC50 stood at 200 nM.

As for `COc1ccc(C2=NOC3COCC23)cc1C(=O)N[C@H]1[C@@H](C(=O)Nc2ccc(F)c(OC(F)(F)F)c2)[C@H]2CC[C@@H]1/C2=C\C1CC1` (stereo partly shown) [compound 761], the EC50 was found to be 1.9 nM.

Regarding `COc1ccc(C2=CCCN(CC(=O)O)C2)cc1C(=O)N[C@H]1[C@@H](C(=O)Nc2ccc(F)c(C(F)(F)F)c2)[C@H]2CC[C@@H]1/C2=C\C1CC1` [Example 259, 2-(5-(3-(((1R,2R,3S,4R,Z)-7-(cyclopropylmethylene)-3-((4-fluoro-3-(trifluoromethyl)phenyl)carbamoyl)bicyclo[2.2.1]heptan-2-yl)carbamoyl)-4-methoxyphenyl)-3,6-dihydropyridin-1(2H)-yl)acetic acid], the concentration for a half-maximal effect (EC50) turned out to be 815 nM.

With `COCCOC1(C2CC(c3ccc(OC)c(C(=O)N[C@H]4[C@@H](C(=O)Nc5ccc(F)c(C(F)(F)F)c5)[C@H]5CC[C@@H]4/C5=C\C4CC4)c3)=NO2)CC1` (single isomer, unassigned) [compound 558], the concentration giving a half-maximal response (EC50) came out at 44.3 nM.

Consider `COc1ccc(C2=NOC3CC(C(C)(C)O)CC23)cc1C(=O)N[C@H]1[C@@H](C(=O)Nc2ccc(F)c(C(F)(F)F)c2)[C@H]2CC[C@@H]1/C2=C\C1CC1` (single isomer, unassigned) [compound 599], for which the EC50 is 104 nM.

`COc1ccc(-c2ccc(C(=O)O)cc2)cc1C(=O)N[C@@H]1C2CCC(/C2=C/c2ccccc2)[C@@H]1C(=O)Nc1ccc(F)c(C(F)(F)F)c1` (stereo partly shown) [Example 79]: the EC50 was 11 nM.

As to `COc1ccc(-c2cnn(CC(=O)O)c2)cc1C(=O)N[C@@H]1C2CCC(/C2=C/c2ccccc2)[C@@H]1C(=O)Nc1ccc(F)c(C(F)(F)F)c1` (stereo partly shown) [compound 340], the EC50 was 62 nM.

Take `COc1ccc(-c2cc(C(N[S+]([O-])C(C)(C)C)C(F)(F)F)ccc2F)cc1C(=O)N[C@H]1[C@@H](C(=O)Nc2ccc(F)c(C(F)(F)F)c2)[C@H]2CC[C@@H]1/C2=C\C1CC1` (stereo partly drawn) [Example 256, (1R,2S,3R,4R,Z)-3-(5′-(1-((tert-butylsulfinyl)amino)-2,2,2-trifluoroethyl)-2′-fluoro-4-methoxy-[1,1′-biphenyl]-3-carboxamido)-7-(cyclopropylmethylene)-N-(4-fluoro-3-(trifluoromethyl)phenyl)bicyclo[2.2.1]heptane-2-carboxamide]: the EC50 was 14 nM.

As for `COc1ccc(C2=NOC3COCC23)cc1C(=O)N[C@H]1[C@@H](C(=O)NC2CC=CC2)[C@H]2CC[C@@H]1/C2=C\C1CC1` (stereo partly shown) [compound 559], the EC50 came out at 44.9 nM.

Consider `COc1ccc(C2=NOC(C(=O)OC(C)(C)C)C2)cc1C(=O)N[C@@H]1C2CCC(/C2=C/C2CC2)[C@@H]1C(=O)Nc1ccc(F)c(C(F)(F)F)c1` (stereo partly shown) [compound 386], for which the EC50 was found to be 71 nM.

Regarding `COc1cc(F)c(F)cc1C(=O)N[C@@H]1C2CCC(/C2=C/C2=CCCC2)[C@@H]1C(=O)Nc1ccc(F)c(C(F)(F)F)c1` (stereo partly shown) [compound 38], the EC50 turned out to be 360 nM.

Turning to `COCC1(CNC(=O)[C@@H]2[C@H](NC(=O)c3cc(C4=NOC5COCC45)ccc3OC)[C@@H]3CC[C@H]2/C3=C/C2CC2)CC1` (stereo partly shown) [compound 701], the EC50 was found to be 1090 nM.

Turning to `COc1ccc(C2=NO[C@H]3COC[C@@H]23)cc1C(=O)N[C@H]1[C@@H](C(=O)Nc2ccc(F)c(C(F)(F)F)c2)[C@H]2CC[C@@H]1/C2=C\C(C)C` [compound 827], the EC50 was 3.1 nM.

With `COc1ccc(C2=NOC3COCC23)cc1C(=O)N[C@H]1[C@@H](C(=O)Nc2ccccc2C)[C@H]2CC[C@@H]1/C2=C\C1CC1` (stereo partly shown) [compound 596], the EC50 came out at 102 nM.

`COc1ccc(C2=NOC3COCC23)cc1C(=O)N[C@H]1[C@@H](C(=O)NCc2c(C)cccc2C)[C@H]2CC[C@@H]1/C2=C\C1CC1` (stereo partly shown) [compound 540]: the EC50 was found to be 29.4 nM.

Turning to `COc1ccc(-c2ccc(N3CCOCC3)nc2)cc1C(=O)N[C@H]1[C@@H](C(=O)Nc2ccc(F)c(C(F)(F)F)c2)[C@H]2CC[C@@H]1C2=C(C)C` [compound 81], the EC50 was 39 nM.

As for `COc1ccc(-c2cc(C(COC(=O)NC3CCC3)C(F)(F)F)ccc2F)cc1C(=O)N[C@H]1[C@@H](C(=O)Nc2ccc(F)c(C(F)(F)F)c2)[C@H]2CC[C@@H]1/C2=C\C1CC1` (stereo partly shown) [compound 879], the EC50 worked out at 0.9 nM.

With `O=C(N[C@H]1[C@@H](C(=O)Nc2ccc(F)c(C(F)(F)F)c2)[C@H]2CC[C@@H]1/C2=C\C1CC1)c1cc(C2=NOC3COCC23)ccc1F` (single isomer, unassigned) [compound 677], the EC50 was determined as 501 nM.

For the compound `COc1cc(F)c(F)cc1C(=O)N[C@@H]1C2CCC(/C2=C/c2ccc(F)cc2)[C@@H]1C(=O)Nc1ccc(F)c(C(F)(F)F)c1` (stereo partly shown) [compound 41], the EC50 is 27 nM.

Turning to `COc1ccc(-c2cc(C3=NOC4CC(CO)CC34)ccc2F)cc1C(=O)N[C@H]1[C@@H](C(=O)Nc2ccc(F)c(C(F)(F)F)c2)[C@H]2CC[C@@H]1/C2=C\C1CCCC1` (stereo partly shown) [compound 952], the EC50 was found to be 1.5 nM.

For `O=C(N[C@H]1[C@@H](C(=O)Nc2ccc(F)c(C(F)(F)F)c2)[C@H]2CC[C@@H]1/C2=C\C1CC1)c1ccc(F)c(C2=NOC3COCC23)c1` (stereo partly shown) [compound 714], the concentration for a half-maximal effect (EC50) is 1750 nM.

As for `COc1ccc(-c2cc([C@H](OC(=O)NC3CCC3)C(F)(F)F)ccc2F)cc1C(=O)N[C@H]1[C@@H](C(=O)N[C@H](C)C2(C)CC2)[C@H]2CC[C@@H]1/C2=C\C1CC(F)(F)C1` [compound 967], the EC50 was 2.1 nM.
